# Patent US8981094B2, “Piperidine/piperazine derivatives” (Janssen Pharmaceutica N.V., priority 2007, dated 2015)
# Target: T1, human DGAT1 (Homo sapiens, UniProt O75907)
# T1 construct: FLAG (N); made in house; host or cells: SF9 insect cells (pFastBac baculovirus); total cell membranes
# T1 sequence (O75907 1-488): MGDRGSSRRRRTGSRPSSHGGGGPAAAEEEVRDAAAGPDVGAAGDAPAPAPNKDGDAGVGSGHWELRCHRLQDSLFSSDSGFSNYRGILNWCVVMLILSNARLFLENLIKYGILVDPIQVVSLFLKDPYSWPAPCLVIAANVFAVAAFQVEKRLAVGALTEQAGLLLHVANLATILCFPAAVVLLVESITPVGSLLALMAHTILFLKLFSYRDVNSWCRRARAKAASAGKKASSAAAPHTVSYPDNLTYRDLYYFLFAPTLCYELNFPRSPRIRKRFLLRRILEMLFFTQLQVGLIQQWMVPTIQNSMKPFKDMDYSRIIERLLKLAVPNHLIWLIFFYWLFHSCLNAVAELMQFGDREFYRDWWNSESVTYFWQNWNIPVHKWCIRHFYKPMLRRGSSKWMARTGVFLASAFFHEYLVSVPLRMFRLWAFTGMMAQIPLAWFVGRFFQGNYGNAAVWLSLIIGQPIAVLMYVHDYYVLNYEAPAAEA
# Assay: Inhibition of DGAT1 activity, FlashPlate assay with DGAT1 membrane preparations and substrate micelles
# Type: biochemical
# Details: pIC50 = -logIC50, IC50 values expressed in M
# Text: A) Measurement of Inhibition of DGAT1 Activity by the Present Compounds
# The inhibiting activity of the present compounds on DGAT1 activity was screened in a single well procedure assay using DGAT1 comprising membrane preparations and DGAT1 substrate comprising micelles and determining formed radio-active triacylglycerol coming in close proximity of a flashplate surface by radio luminescence.
# Said assay is described in full detail in WO2006/067071, the content of which is incorporated herein by reference.
# By DGAT1 activity is meant the transfer of coenzyme A activated fatty acids to the 3-position of 1,2-diacylglycerols, thus forming a triglyceride molecule, by enzyme DGAT1.
# human DGAT1 (NM012079.2) was cloned into the pFastBac vector, containing translation start, a FLAG-tag at the N-terminus as described in literature and a viral Kozak sequence (AAX) preceding the ATG to improve expression in insect cells. Expression was done as described in literature (Cases, S., Smith, S. J., Zheng, Y., Myers H. M., Lear, S. R., Sande, E., Novak, S., Collins, C., Welch, C. B., Lusis, A. J., Erickson, S. K. and Farese, R. V. (1998) Proc. Natl. Acad. Sci. USA 95, 13018-13023.) using SF9 cells.
# 72 h transfected SF9 cells were collected by centrifugation (13000 rpm-15 min-4° C.) and lysed in 2×500 ml lysisbuffer (0.1M Sucrose, 50 mM KCl, 40 mM KH2PO4, 30 mM EDTA pH 7.2. Cells were homogenized by cell disruptor. After centrifugation 1380 rpm-15 min-4° C. (SN discarded), pellet was resuspended in 500 ml lysisbuffer and total cell membranes collected by ultracentrifugation at 34000 rpm(100 000 g) for 60 min (4° C.). The collected membranes were resuspended in lysis buffer, divided in aliquots and stored with 10% glycerol at −80° C. until use.
# Add 1 ml dioleoyl-sn-glycerol (10 mg/ml) to 10 ml of L-α-phosphatidylcholine (1 mg/ml) and 10 ml of L-α-phosphatidyl-L-serine (1 mg/ml) in a thick glass recipient. Evaporate under nitrogen and put on ice for 15 minutes. Reconstitute in 10 ml Tris/HCl (10 mM, pH 7.4) by sonication on ice. The sonification process consists of sonification cycles of 10 seconds in the sonification bath followed by 10 seconds cool down on ice and repeating this sonification cycle till a homogeneous solution is obtained (takes about 15 minutes). The thus obtained micelles are stored at −20° C. till later use and contain DAG at a final concentration of 1.61 mM.
# c) Substrate mix (for 1 384 well plate=3840 μl) • 612 μl micelles stock (51 μM final) • 16.6 μl oleoylCoA 9.7 mM • 23 μl [^3H]-oleoylCoA (49 Ci/mmol, 500 μCi/ml) • 3188.4 μl Tris pH 7.4, 10 mM
# d) Enzyme mix (for 1 384 well plate=3520 μl) (5 μg/ml) • Add 11.73 μl of DGAT membrane stock (1500 μg/ml stock) to 3508 μl assay buffer.
# e) Stop mix (for 1 384 well plate=7.68 ml) (250 mM) • Add 384 μl of N-ethylmaleimide (5M) to 3.456 ml DMSO 100%, and further dilute 3.84 ml of said solution with 3.84 ml DMSO 10%.
# DGAT activity in membrane preparations was assayed in 50 mM Tris-HCl (pH 7.4), 150 mM MgCl2, 1 mM EDTA and 0.2% BSA, containing 50 μM DAG, 32 μg/ml PC/PS and 8.4 μM [^3H]-oleoylCoA (at a specific activity of 30 nCi/well) in a final volume of 50 μl in 384-well format using the red shifted Basic Image FlashPlate™ (Perkin Elmer Cat.No. SMP400).
# In detail, 10 μl enzyme mix and 10 μl substrate mix were added to 30 μl of assay buffer, optionally in the presence of 1 μl DMSO (blank and controls) or 1 μl of the compound to be tested. This reaction mixture was incubated for 120 minutes at 37° C. and the enzymatic reaction stopped by adding 20 μl of the stop mix. The plates were sealed and the vesicles allowed to settle overnight at room temperature. Plates were centrifuged for 5 minutes at 1500 rpm and measured in Leadseeker. […]
row,SMILES,IC50 [nM]
1,N#CCCNCC(=O)Nc1ccc(C2CCN(C(=O)Nc3c(Cl)cccc3Cl)CC2)cc1 [Compound 121],3800
2,CC(C)(C)OC(=O)NC(CO)C(=O)Nc1ccc(C2CCN(C(=O)Nc3c(Cl)cccc3Cl)CC2)cc1 (stereo not shown) [Compound 204],1910
3,CC(NC(=O)c1ccc(N2CCN(C(=O)Cc3c(Cl)cccc3Cl)CC2)cc1)c1ccc(F)cc1 (stereo not shown) [Compound 250],174
4,O=C(CCCc1ccccc1)Nc1ccc(N2CCN(C(=O)C(O)c3cccc(O)c3)CC2)cc1 (stereo not shown) [Compound 340],3550
5,Cc1cc(C)cc(N2CCN(CC(=O)Nc3ccc(C4CCN(C(=O)Nc5c(Cl)cccc5Cl)CC4)cc3)CC2)c1 [Compound 105],170
6,CC(CN)C(=O)Nc1ccc(C2CCN(C(=O)Nc3c(Cl)cccc3Cl)CC2)cc1 (stereo not shown) [Compound 23],2570
7,CC(C)(C)OC(=O)NC(CC#N)C(=O)Nc1ccc(C2CCN(C(=O)Nc3c(Cl)cccc3Cl)CC2)cc1 (stereo not shown) [Compound 211],126
8,O=C(CCCc1ccccc1)Nc1ccc(N2CCN(C(=O)Nc3ccccc3[N+](=O)[O-])CC2)cc1 [Compound 80],589
9,O=C(CNCC1CC1)Nc1ccc(C2CCN(C(=O)Nc3c(Cl)cccc3Cl)CC2)cc1 [Compound 116],575
10,O=C(CCCc1ccccc1)Nc1ccc(N2CCN(C(=O)C(O)c3ccc(F)cc3)CC2)cc1 (stereo not shown) [Compound 344],4070
11,COC(=O)c1cc(Cl)c(NC(=O)N2CCN(c3ccc(NC(=O)CCCc4ccccc4)cc3)CC2)c(Cl)c1 [Compound 47],135
12,CC(C)C(NC(=O)OC(C)(C)C)C(=O)Nc1ccc(C2CCN(C(=O)Nc3c(Cl)cccc3Cl)CC2)cc1 (stereo not shown) [Compound 208],191
13,C=CCC(N)C(=O)Nc1ccc(C2CCN(C(=O)Nc3c(Cl)cccc3Cl)CC2)cc1 (stereo not shown) [Compound 146],10500
14,COC(=O)c1cccc(NC(=O)N2CCN(c3ccc(NC(=O)CCCc4ccccc4)cc3)CC2)c1C [Compound 72],490
15,O=C(CNCc1ccco1)Nc1ccc(C2CCN(C(=O)Nc3c(Cl)cccc3Cl)CC2)cc1 [Compound 119],389
16,CCCNCC(=O)Nc1ccc(C2CCN(C(=O)Nc3c(Cl)cccc3Cl)CC2)cc1 [Compound 122],562
17,O=C(NCc1cc(F)cc(F)c1)c1ccc(N2CCN(C(=O)Cc3c(Cl)cccc3Cl)CC2)cc1 [Compound 252],234
18,C=CCNCC(=O)Nc1ccc(C2CCN(C(=O)Nc3c(Cl)cccc3Cl)CC2)cc1 [Compound 20],575
19,CCC(N)C(=O)Nc1ccc(C2CCN(C(=O)Nc3c(Cl)cccc3Cl)CC2)cc1 (stereo not shown) [Compound 151],6920
20,CCC(NC(=O)OC(C)(C)C)C(=O)Nc1ccc(C2CCN(C(=O)Nc3c(Cl)cccc3Cl)CC2)cc1 (stereo not shown) [Compound 205],398
21,CC(=O)NCCC(=O)Nc1ccc(N2CCN(C(=O)Nc3c(Cl)cccc3Cl)CC2)cc1 [Compound 44],5130
22,CSCC(NC(=O)OC(C)(C)C)C(=O)Nc1ccc(C2CCN(C(=O)Nc3c(Cl)cccc3Cl)CC2)cc1 (stereo not shown) [Compound 210],155
23,O=C(CCCc1ccccc1)Nc1ccc(N2CCN(C(=O)C(O)c3c(F)cccc3F)CC2)cc1 (stereo not shown) [Compound 330],200
24,O=C(CN1CCC(F)(F)CC1)Nc1ccc(C2CCN(C(=O)Nc3c(Cl)cccc3Cl)CC2)cc1 [Compound 107],182

# Continued by falling IC50, values first:
row,IC50 [nM],SMILES
1,126,Cc1ccc(C)c(N2CCN(CC(=O)Nc3ccc(C4CCN(C(=O)Nc5c(Cl)cccc5Cl)CC4)cc3)CC2)c1 [Compound 104]
2,120,C#CCCC(=O)Nc1ccc(N2CCN(C(=O)Nc3c(Cl)cccc3Cl)CC2)cc1 [Compound 139]
3,115,O=C(CCCc1ccccc1)Nc1ccc(N2CCN(C(=O)C(O)c3ccc(F)cc3F)CC2)cc1 (stereo not shown) [Compound 325]
4,107,O=C(NCc1cccc(N2CCCC2)c1)c1ccc(N2CCN(C(=O)Cc3c(Cl)cc(CN4CCCC4)cc3Cl)CC2)cc1 [Compound 267]
5,67.6,COC(=O)CCCC(=O)Nc1ccc(C2CCN(C(=O)Nc3c(Cl)cccc3Cl)CC2)cc1 [Compound 126]
6,53.7,O=C(NCc1ccc2c(c1)OCO2)c1ccc(N2CCN(C(=O)Cc3c(Cl)cccc3Cl)CC2)cc1 [Compound 235]
7,46.8,CC(=O)c1cc(Cl)c(NC(=O)N2CCN(c3ccc(NC(=O)CCCc4ccccc4)cc3)CC2)c(Cl)c1 [Compound 53]
8,44.7,O=C(Cc1ccsc1)Nc1ccc(C2CCN(C(=O)Nc3c(Cl)cccc3Cl)CC2)cc1 [Compound 132]
9,35.5,"CC(C)CC(NC(=O)OC(C)(C)C)C(=O)Nc1ccc(C2CCN(C(=O)Nc3c(Cl)cccc3Cl)CC2)cc1 (single isomer, unassigned) [Compound 33]"
10,31.6,COc1ccc(CC(=O)Nc2ccc(N3CCN(C(=O)Oc4c(Cl)cccc4Cl)CC3)cc2)cc1 [Compound 308]
11,30.9,CC(C)CC(=O)N(C)CC(=O)Nc1ccc(N2CCN(C(=O)Nc3c(Cl)cccc3Cl)CC2)cc1 [Compound 168]
12,29.5,O=C(CCCc1ccccc1)Nc1ccc(N2CCN(C(=O)Nc3c(Cl)cc(OC(F)(F)F)cc3Cl)CC2)cc1 [Compound 13]
13,25.7,O=C(CCc1ccccc1)Nc1ccc(C2CCN(C(=O)Nc3c(Cl)cccc3Cl)CC2)cc1 [Compound 131]
14,19.1,C#CCC(NC(=O)OC(C)(C)C)C(=O)Nc1ccc(C2CCN(C(=O)Nc3c(Cl)cccc3Cl)CC2)cc1 (stereo not shown) [Compound 220]
15,17,CC(C)(C)OC(=O)N1CCCC1CC(=O)Nc1ccc(C2CCN(C(=O)Nc3c(Cl)cccc3Cl)CC2)cc1 (stereo not shown) [Compound 39]
16,15.5,COc1ccc(CC(=O)Nc2ccc(C3CCN(C(=O)Nc4c(Cl)cccc4Cl)CC3)cc2)cc1 [Compound 134]
17,13.8,O=C(CCCc1ccccc1)Nc1ccc(N2CCN(C(=O)C(O)c3ccccc3Br)CC2)cc1 (stereo not shown) [Compound 295]
18,10.2,CC(N)c1cc(Cl)c(NC(=O)N2CCN(c3ccc(NC(=O)CCCc4ccccc4)cc3)CC2)c(Cl)c1 (stereo not shown) [Compound 55]
19,8.13,CN(C)C(=O)c1cc(Cl)c(NC(=O)N2CCN(c3ccc(NC(=O)CCCc4ccccc4)cc3)CC2)c(Cl)c1 [Compound 284]
20,6.17,COc1cc(Cl)c(NC(=O)N2CCN(c3ccc(NC(=O)CCCc4ccccc4)cc3)CC2)c(Cl)c1 [Compound 190]
21,2.14,"CC(O)c1cc(Cl)c(NC(=O)N2CCN(c3ccc(NC(=O)CCCc4ccccc4)cc3)CC2)c(Cl)c1 (single isomer, unassigned) [Compound 270]"
22,2.04,O=C(CCCc1ccccc1)Nc1ccc(N2CCN(C(=O)Nc3c(Cl)cc(CN4CCOCC4)cc3Cl)CC2)cc1 [Compound 269]
